Test results from ChEMBL document CHEMBL5380833 (J Med Chem, 2023).
Activity calls are given as the source filed them. The calls are words filed in the database; no cut-off is given here.

Assays:
[1] = MRT last in Balb/c mouse at 10 mg/kg, ip measured upto 24 hrs by LC-MS/MS analysis; assay type: ADME, organism-based; conditions: in vivo
[2] = biological target: T1, Protein cereblon/Tyrosine-protein kinase ITK/TSK (Homo sapiens, UniProt Q08881+Q96SW2); test: PROTAC activity at CRBN/ITK in human Jurkat cells assessed as induction of ITK degradation at 100 nM measured after 2 hrs by Western blot analysis; assay type: cell-based
Target sequence in this assay (Q08881 whole entry, looked up): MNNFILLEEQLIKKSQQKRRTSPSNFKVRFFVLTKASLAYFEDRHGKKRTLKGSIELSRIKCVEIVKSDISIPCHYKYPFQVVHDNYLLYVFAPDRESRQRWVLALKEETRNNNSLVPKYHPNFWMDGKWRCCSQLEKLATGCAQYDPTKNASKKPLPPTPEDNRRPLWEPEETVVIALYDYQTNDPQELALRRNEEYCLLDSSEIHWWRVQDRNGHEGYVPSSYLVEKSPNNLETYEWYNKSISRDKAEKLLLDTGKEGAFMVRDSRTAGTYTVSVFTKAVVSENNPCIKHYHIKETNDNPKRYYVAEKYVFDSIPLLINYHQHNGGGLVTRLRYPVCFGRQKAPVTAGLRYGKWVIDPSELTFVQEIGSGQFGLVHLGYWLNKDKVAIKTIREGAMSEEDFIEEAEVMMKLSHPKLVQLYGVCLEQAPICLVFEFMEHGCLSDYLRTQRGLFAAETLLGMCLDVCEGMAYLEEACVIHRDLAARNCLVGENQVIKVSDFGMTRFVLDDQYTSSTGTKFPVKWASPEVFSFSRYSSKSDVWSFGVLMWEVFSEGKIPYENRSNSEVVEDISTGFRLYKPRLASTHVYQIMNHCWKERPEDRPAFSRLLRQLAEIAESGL
Target sequence in this assay (Q96SW2 whole entry, looked up): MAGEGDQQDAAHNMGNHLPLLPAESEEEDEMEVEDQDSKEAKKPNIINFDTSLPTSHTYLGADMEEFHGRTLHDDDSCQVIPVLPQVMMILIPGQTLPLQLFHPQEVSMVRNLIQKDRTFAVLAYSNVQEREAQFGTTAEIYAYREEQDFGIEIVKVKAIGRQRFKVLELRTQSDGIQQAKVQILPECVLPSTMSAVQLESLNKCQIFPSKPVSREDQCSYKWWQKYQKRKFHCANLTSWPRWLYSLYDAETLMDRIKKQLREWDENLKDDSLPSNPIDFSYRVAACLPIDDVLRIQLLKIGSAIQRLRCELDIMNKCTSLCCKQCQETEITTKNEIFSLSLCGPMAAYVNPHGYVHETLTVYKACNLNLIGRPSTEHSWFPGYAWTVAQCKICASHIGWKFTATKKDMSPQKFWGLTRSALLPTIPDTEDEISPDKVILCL

[3] = Toxicity in Balb/c mouse assessed as drug tolerance at 5 mg/kg, iv measured upto 24 hrs by LC-MS/MS analysis; assay type: organism-based; conditions: in vivo
[4] = biological target: T1, Protein cereblon/Tyrosine-protein kinase ITK/TSK; test: PROTAC activity at CRBN/ITK in human Jurkat cells assessed as induction of ITK degradation at 100 nM pretreated with 5-amino-2-(2,6-dioxopiperidin-3-yl)isoindoline-1,3-dione for 1 hr followed by compound addition and measured after 2 hrs by Western blot analysis; assay type: cell-based
Target sequence in this assay (Q08881 whole entry, looked up): as the sequence (Q08881 whole entry, looked up) above
Target sequence in this assay (Q96SW2 whole entry, looked up): as the sequence (Q96SW2 whole entry, looked up) above

Jurkat [5] = test: Inhibition of TCR signalling in human Jurkat cells assessed as reduction in PLCgamma1 phosphorylation preincubated with cells for 12 hrs followed by anti-CD-2 antibody stimulation for 5 mins by Western blot analysis; assay type: cell-based; conditions: dose 0.01-3 µM
[6] = AUC (0 to infinity) in Balb/c mouse at 5 mg/kg, iv measured upto 24 hrs by LC-MS/MS analysis; assay type: ADME, organism-based; design: time < 24 hrs, dose 5 mg/kg, route iv; conditions: in vivo
[7] = Toxicity in Balb/c mouse assessed as side effects at 10 mg/kg, ip measured upto 24 hrs by LC-MS/MS analysis; assay type: organism-based; conditions: in vivo
[8] = Volume of distribution at steady state in Balb/c mouse at 5 mg/kg, iv measured upto 24 hrs by LC-MS/MS analysis; assay type: ADME, organism-based; conditions: in vivo, read-out: Vdss
[9] = Half life in Balb/c mouse at 10 mg/kg, ip measured upto 24 hrs by LC-MS/MS analysis; assay type: ADME, organism-based; conditions: in vivo
[10] = biological target: T1, Protein cereblon/Tyrosine-protein kinase ITK/TSK; test: PROTAC activity at CRBN/ITK in human Jurkat cells assessed as maximum degradation at 0.01 to 10 uM by Western blot analysis relative to control; assay type: cell-based; conditions: dose 0.01-10 µM
Target sequence in this assay (Q08881 whole entry, looked up): as the sequence (Q08881 whole entry, looked up) above
Target sequence in this assay (Q96SW2 whole entry, looked up): as the sequence (Q96SW2 whole entry, looked up) above

[11] = Bioavailability in Balb/c mouse at 10 mg/kg, ip measured upto 24 hrs by LC-MS/MS analysis; assay type: ADME, organism-based; conditions: in vivo
[12] = Toxicity in Balb/c mouse assessed as side effects at 5 mg/kg, iv measured upto 24 hrs by LC-MS/MS analysis; assay type: organism-based; conditions: in vivo
[13] = biological target: T1, Protein cereblon/Tyrosine-protein kinase ITK/TSK; test: PROTAC activity at CRBN/ITK in human Jurkat cells assessed as induction of ITK degradation at 100 nM pretreated with proteosome inhibitor carfilzomib for 1 hr followed by compound addition and measured after 2 hrs by Western blot analysis; assay type: cell-based
Target sequence in this assay (Q08881 whole entry, looked up): as the sequence (Q08881 whole entry, looked up) above
Target sequence in this assay (Q96SW2 whole entry, looked up): as the sequence (Q96SW2 whole entry, looked up) above

[14] = biological target: T1, Protein cereblon/Tyrosine-protein kinase ITK/TSK; test: PROTAC activity at CRBN/ITK in Jurkat cells assessed as induction of ITK degradation at 100 nM pretreated with GNE-9822 for 1 hr followed by compound addition and measured after 2 hrs by Western blot analysis; assay type: cell-based
Target sequence in this assay (Q08881 whole entry, looked up): as the sequence (Q08881 whole entry, looked up) above
Target sequence in this assay (Q96SW2 whole entry, looked up): as the sequence (Q96SW2 whole entry, looked up) above

[15] = biological target: T1, Protein cereblon/Tyrosine-protein kinase ITK/TSK; test: PROTAC activity at CRBN/ITK in human MOLT-4 cells assessed as induction of ITK degradation; assay type: cell-based
Target sequence in this assay (Q08881 whole entry): as the sequence (Q08881 whole entry, looked up) above
Target sequence in this assay (Q96SW2 whole entry): as the sequence (Q96SW2 whole entry, looked up) above

Jurkat [16] = test: Induction of degradation of RSK in human Jurkat cells at 0.01 to 10 uM by immunoblotting analysis; assay type: cell-based; conditions: dose 0.01-10 µM
[17] = AUC (0 to t) in Balb/c mouse at 5 mg/kg, iv measured upto 24 hrs by LC-MS/MS analysis; assay type: ADME, organism-based; design: dose 5 mg/kg, time < 24 hrs, route iv; conditions: in vivo
[18] = Cmax in Balb/c mouse at 10 mg/kg, ip measured upto 24 hrs by LC-MS/MS analysis; assay type: ADME, organism-based; design: dose 10 mg/kg, time < 24 hrs, route ip; conditions: in vivo
[19] = Cmax in Balb/c mouse at 5 mg/kg, iv measured upto 24 hrs by LC-MS/MS analysis; assay type: ADME, organism-based; design: time < 24 hrs, dose 5 mg/kg, route iv; conditions: in vivo
Jurkat [20] = test: Inhibition of TCR signalling in human Jurkat cells assessed as reduction in ERK(T202/Y204) phosphorylation preincubated with cells for 12 hrs followed by anti-CD-2 antibody stimulation for 5 mins by Western blot analysis; assay type: cell-based; conditions: dose 0.01-3 µM
[21] = Clearance in Balb/c mouse at 10 mg/kg, ip measured upto 24 hrs by LC-MS/MS analysis; assay type: ADME, organism-based; conditions: in vivo
[22] = biological target: T1, Protein cereblon/Tyrosine-protein kinase ITK/TSK; test: PROTAC activity at CRBN/ITK in human Jurkat cells assessed as residual activity at 10 uM incubated for 16 hrs relative to control; assay type: cell-based
Target sequence in this assay (Q08881 whole entry, looked up): as the sequence (Q08881 whole entry, looked up) above
Target sequence in this assay (Q96SW2 whole entry, looked up): as the sequence (Q96SW2 whole entry, looked up) above

[23] = AUC (0 to t) in Balb/c mouse at 10 mg/kg, ip measured upto 24 hrs by LC-MS/MS analysis; assay type: ADME, organism-based; design: time < 24 hrs, dose 10 mg/kg, route ip; conditions: in vivo
[24] = biological target: Tyrosine-protein kinase Lck (Homo sapiens) (UniProt P06239); test: Induction of degradation of LCK in human Jurkat cells at 0.01 to 10 uM by immunoblotting analysis; assay type: cell-based; conditions: dose 0.01-10 µM
[25] = MRT last in Balb/c mouse at 5 mg/kg, iv measured upto 24 hrs by LC-MS/MS analysis; assay type: ADME, organism-based; conditions: in vivo, iv, 5 mg/kg, 24 h

Tyrosine-protein kinase Lck (Homo sapiens), sequence (P06239 2-509 limits assumed): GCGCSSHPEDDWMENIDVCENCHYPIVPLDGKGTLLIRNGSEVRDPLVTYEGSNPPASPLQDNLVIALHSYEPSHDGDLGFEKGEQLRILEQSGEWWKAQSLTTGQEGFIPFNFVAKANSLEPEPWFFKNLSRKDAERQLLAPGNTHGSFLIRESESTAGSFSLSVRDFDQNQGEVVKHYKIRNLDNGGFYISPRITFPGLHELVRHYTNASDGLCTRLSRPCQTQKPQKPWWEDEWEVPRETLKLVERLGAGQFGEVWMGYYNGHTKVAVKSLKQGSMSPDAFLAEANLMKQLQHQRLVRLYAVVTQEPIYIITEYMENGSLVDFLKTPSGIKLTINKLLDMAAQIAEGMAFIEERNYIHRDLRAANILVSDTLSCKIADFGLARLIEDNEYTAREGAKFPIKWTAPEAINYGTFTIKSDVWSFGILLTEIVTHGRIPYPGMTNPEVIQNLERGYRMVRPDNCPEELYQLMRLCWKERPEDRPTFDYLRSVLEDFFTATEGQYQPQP

MRT last at 24 h [1]: 1.06 h | Activity [2]: Active | Activity [4]: inactive | AUC(0-inf) [6]: 1080 ng·h/mL | Vd [8]: 12.9 L/kg | half-life [9]: 117 min | Emax [10]: 99% | bioavailability [11]: 73.5% | Activity [13]: inactive | Activity [14]: inactive | DC50 [15]: 6 nM | AUC(0-t) at 24 h [17]: 1080 ng·h/mL | Cmax [18]: 1240 ng/mL | Cmax [19]: 3320 ng/mL | CL/F [21]: 109 mL/min/kg | Activity [22]: 12% | AUC(0-t) at 24 h [23]: 1560 ng·h/mL | Activity [24]: inactive | MRTlast [25]: 23.4 min
Structure (SMILES): CN(CCCCCC(=O)Nc1ccc2c(c1)C(=O)N(C1CCC(=O)NC1=O)C2=O)CC[C@@H](c1ccccc1)n1cc(NC(=O)c2n[nH]c3c2CCC(C)(C)C3)cn1.O=C(O)C(F)(F)F (stereo not given in full)
Activity [3]: Non-Toxic | inhibition (Jurkat [5]): Dose-Dependent Effect | Activity [7]: Non-Toxic | Activity [12]: Non-Toxic | Activity (Jurkat [16]): inactive | inhibition (Jurkat [20]): Dose-Dependent Effect
